Measurements: US20060069132A1, “Azolecarboxamide herbicides” (priority 2004, published 2006)

Key:
Surinam grass = experiment: Test B pre-/postemergence herbicide test; assay type: in vivo, Urochloa decumbens
Outline: (§1)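 Evaluation is visual, comparing treated with control plants on a scale where 0 means no effect and 100 means full control. Treatments were preemergence, or postemergence on seedlings 2–18 cm tall, and held 13–15 days in the greenhouse.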

rice = experiment: Test B flooded paddy test; assay type: in vivo, Oryza sativa; settings: 1000 g ai/ha, scale 0 to 100 (0 no effect, 100 complete control)
Outline: (§2)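 Each value is a visual 0–100 response rating taken against controls 13 to 15 days after treatment in the greenhouse. Plants received formulated chemical postemergence at the 1- to 4-leaf stage or, in flooded paddy, at the 2-leaf stage.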

blackgrass = experiment: Test B postemergence herbicide test; assay type: in vivo, Alopecurus myosuroides
Outline: as §2

wheat = experiment: Test B postemergence herbicide test; assay type: in vivo, Triticum aestivum; set-up: key to Wheat plant response rating: 0 = no effect, 100 = complete control; settings: postemergence
Outline: (§3)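 Read-out: visual comparison with controls, scored 0 to 100, where 100 means complete control and 0 no effect. Formulated chemicals were applied postemergence to plants 2–18 cm tall (1- to 4-leaf), or to flooded-paddy plants at the 2-leaf stage, then held 13 to 15 days under glass.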

wild oat = experiment: Test B postemergence herbicide test; assay type: in vivo, Avena fatua
Outline: as §3

large crabgrass [1] = experiment: Test B pre-/postemergence herbicide test; assay type: in vivo, Digitaria sanguinalis
Outline: as §1

[2] = system: small flower umbrella sedge; experiment: Test B flooded paddy test; assay type: in vivo, Cyperus difformis; settings: 1000 g ai/ha, scale 0 to 100 (0 no effect, 100 complete control)
Outline: as §2

giant foxtail [3] = experiment: Test B pre-/postemergence herbicide test; assay type: in vivo, Setaria faberi
Outline: as §1

cocklebur = experiment: Test B pre-/postemergence herbicide test; assay type: in vivo, Xanthium strumarium
Outline: as §1

velvetleaf [4] = experiment: Test B pre-/postemergence herbicide test; assay type: in vivo, Abutilon theophrasti
Outline: as §1

barnyardgrass [5] = experiment: Test B flooded paddy test; assay type: in vivo, Echinochloa crus-galli; settings: 1000 g ai/ha, scale 0 to 100 (0 no effect, 100 complete control)
Outline: as §2

barnyardgrass [6] = experiment: Test A pre-/postemergence herbicide test; assay type: in vivo, Echinochloa crus-galli
Outline: (§4)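 Pre: seeded sandy loam, directed soil spray, compound in non-phytotoxic solvent + surfactant. Post: 1–2-leaf plants (2–10 cm), sprayed to runoff. Greenhouse ~10 d; visual injury vs untreated, 0–100 scale.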

velvetleaf [7] = experiment: Test A pre-/postemergence herbicide test; assay type: in vivo, Abutilon theophrasti
Outline: as §4

ducksalad = experiment: Test B flooded paddy test; assay type: in vivo, Heteranthera limosa; settings: 1000 g ai/ha, scale 0 to 100 (0 no effect, 100 complete control)
Outline: as §2

corn = experiment: Test B pre-/postemergence herbicide test; assay type: in vivo, Zea mays
Outline: as §1

giant foxtail [8] = experiment: Test A pre-/postemergence herbicide test; assay type: in vivo, Setaria faberi
Outline: as §4

lambsquarters = experiment: Test B pre-/postemergence herbicide test; assay type: in vivo, Chenopodium album
Outline: as §1

morningglory [9] = experiment: Test B pre-/postemergence herbicide test; assay type: in vivo, Ipomoea coccinea
Outline: as §1

redroot pigweed = experiment: Test A pre-/postemergence herbicide test; assay type: in vivo, Amaranthus retroflexus
Outline: as §4

barnyardgrass [10] = experiment: Test B pre-/postemergence herbicide test; assay type: in vivo, Echinochloa crus-galli
Outline: as §1

large crabgrass [11] = experiment: Test A pre-/postemergence herbicide test; assay type: in vivo, Digitaria sanguinalis
Outline: as §4

pigweed = experiment: Test B pre-/postemergence herbicide test; assay type: in vivo, Amaranthus retroflexus
Outline: as §1

morningglory [12] = experiment: Test A pre-/postemergence herbicide test; assay type: in vivo, Ipomoea spp.
Outline: as §4

[13] = 500 g ai/ha; visual rating 0-100, 0 no effect, 100 complete control; preemergence
[14] = postemergence, 125 g ai/ha; visual rating, scale 0 (no effect) to 100 (complete control)
[15] = postemergence, 500 g ai/ha; visual rating, scale 0 (no effect) to 100 (complete control)
[16] = preemergence, 125 g ai/ha; 0 to 100 scale, 0 is no effect, 100 is complete control
[17] = Postemergence, 500 g ai/ha, 0 to 100 scale, 0 no effect, 100 complete control
[18] = Postemergence, 2000 g ai/ha, 0 to 100 scale, 0 no effect, 100 complete control
[19] = Preemergence, 500 g ai/ha, visual rating, 0 to 100 scale (0 no effect, 100 complete control)
[20] = Preemergence, 2000 g ai/ha, visual rating, 0 to 100 scale (0 no effect, 100 complete control)
[21] = preemergence, 500 g ai/ha, visual injury, 0 to 100 scale (0 no effect, 100 complete control)
[22] = 125 g ai/ha; 0 is no effect, 100 is complete control; preemergence
[23] = 125 g ai/ha; visual rating, scale 0 (no effect) to 100 (complete control); postemergence
[24] = 500 g ai/ha; visual rating, 0 = no effect, 100 = complete control; preemergence
[25] = postemergence, 500 g ai/ha; scale 0 to 100, 0 is no effect, 100 is complete control

CC(=NO)c1ccnc(NC(=O)c2cc(C(C)(C)C)nn2C)n1 [Compound 164]
Plant response rating, Surinam Grass (Surinam grass; [13]): 0
Surinam Grass plant response rating (Surinam grass; [14]): 0
Surinam Grass plant response rating (Surinam grass; [15]): 10
Plant response rating, Surinam Grass (Surinam grass; [16]): 0
Rice plant response rating (rice; visual rating, 13 to 15 days): 0
Blackgrass plant response rating (blackgrass; [14]): 0
Blackgrass plant response rating (blackgrass; [15]): 0
Wheat plant response rating (wheat; 500 g ai/ha, visual rating, scale 0 (no effect) to 100 (complete control)): 0
Oat, Wild plant response rating (wild oat; [14]): 0
Oat, Wild plant response rating (wild oat; [15]): 0
Plant response rating, Crabgrass, Large (large crabgrass [1]; [13]): 0
Crabgrass, Large plant response rating (large crabgrass [1]; [14]): 0
Crabgrass, Large plant response rating (large crabgrass [1]; [15]): 0
Plant response rating, Crabgrass, Large (large crabgrass [1]; [16]): 0
Sedge, Umbrella plant response rating ([2]; visual rating, 13 to 15 days): 0
Plant response rating, Foxtail, Giant (giant foxtail [3]; [13]): 0
Foxtail, Giant plant response rating (giant foxtail [3]; [14]): 0
Foxtail, Giant plant response rating (giant foxtail [3]; [15]): 0
Plant response rating, Foxtail, Giant (giant foxtail [3]; [16]): 0
Plant response rating, Cocklebur (cocklebur; [13]): 0
Cocklebur plant response rating (cocklebur; [14]): 0
Cocklebur plant response rating (cocklebur; [15]): 0
Plant response rating, Cocklebur (cocklebur; [16]): 0
Plant response rating, Velvetleaf (velvetleaf [4]; [13]): 0
Velvetleaf plant response rating (velvetleaf [4]; [14]): 0
Velvetleaf plant response rating (velvetleaf [4]; [15]): 0
Plant response rating, Velvetleaf (velvetleaf [4]; [16]): 0
Barnyardgrass plant response rating (barnyardgrass [5]; visual rating, 13 to 15 days): 0
Barnyardgrass plant response rating (barnyardgrass [6]; [17]): 10
Plant response rating, Barnyardgrass (barnyardgrass [6]; [18]): 10
Barnyardgrass plant response rating (barnyardgrass [6]; [19]): 0
Barnyardgrass plant response rating (barnyardgrass [6]; [20]): 0
Velvetleaf plant response rating (velvetleaf [7]; [17]): 5
Plant response rating, Velvetleaf (velvetleaf [7]; [18]): 0
Velvetleaf plant response rating (velvetleaf [7]; [20]): 0
Velvetleaf plant response rating (velvetleaf [7]; [21]): 0
Ducksalad plant response rating (ducksalad; visual rating, 13 to 15 days): 0
Plant response rating, Corn (corn; [13]): 0
Corn plant response rating (corn; [14]): 0
Corn plant response rating (corn; [15]): 10
Plant response rating, Corn (corn; [16]): 0
Foxtail, Giant plant response rating (giant foxtail [8]; [17]): 0
Plant response rating, Foxtail, Giant (giant foxtail [8]; [18]): 0
Foxtail, Giant plant response rating (giant foxtail [8]; [19]): 0
Foxtail, Giant plant response rating (giant foxtail [8]; [20]): 0
Plant response rating, Lambsquarters (lambsquarters; [13]): 0
Lambsquarters plant response rating (lambsquarters; [14]): 0
Lambsquarters plant response rating (lambsquarters; [15]): 10
Plant response rating, Lambsquarters (lambsquarters; [16]): 0
Plant response rating, Morningglory (morningglory [9]; [13]): 0
Morningglory plant response rating (morningglory [9]; [14]): 0
Morningglory plant response rating (morningglory [9]; [15]): 0
Plant response rating, Morningglory (morningglory [9]; [16]): 0
Pigweed plant response rating (redroot pigweed; [17]): 0
Plant response rating, Pigweed (redroot pigweed; [18]): 0
Pigweed plant response rating (redroot pigweed; [20]): 0
Pigweed plant response rating (redroot pigweed; [21]): 0
Plant response rating, Barnyardgrass (barnyardgrass [10]; [13]): 0
Barnyardgrass plant response rating (barnyardgrass [10]; [14]): 0
Barnyardgrass plant response rating (barnyardgrass [10]; [15]): 0
Plant response rating, Barnyardgrass (barnyardgrass [10]; [16]): 0
Crabgrass, Large plant response rating (large crabgrass [11]; [17]): 10
Plant response rating, Crabgrass, Large (large crabgrass [11]; [18]): 10
Crabgrass, Large plant response rating (large crabgrass [11]; [19]): 0
Crabgrass, Large plant response rating (large crabgrass [11]; [20]): 0
Plant response rating, Pigweed (pigweed; [13]): 0
Pigweed plant response rating (pigweed; [14]): 0
Pigweed plant response rating (pigweed; [15]): 0
Plant response rating, Pigweed (pigweed; [16]): 0
Morningglory plant response rating (morningglory [12]; [17]): 10
Plant response rating, Morningglory (morningglory [12]; [18]): 5
Morningglory plant response rating (morningglory [12]; [19]): 0
Morningglory plant response rating (morningglory [12]; [20]): 0

CCOc1ccc(F)c(NC(=O)c2cc(C(C)(C)C)nn2CC)c1 [Compound 348]
Plant response rating (0 to 100 scale), Surinam Grass (Surinam grass; [22]): 0
Surinam Grass plant response rating (Surinam grass; [23]): 0
Plant response rating, Surinam Grass (Surinam grass; [24]): 0
Surinam Grass plant response rating (Surinam grass; [25]): 0
Rice plant response rating (rice): 0
Blackgrass plant response rating (blackgrass; [23]): 20
Blackgrass plant response rating (blackgrass; [25]): 40
Wheat plant response rating (wheat; 125 g ai/ha, visual rating, scale 0 (no effect) to 100 (complete control)): 20
Wheat plant response rating (wheat; 500 g ai/ha, scale 0 to 100, 0 is no effect, 100 is complete control): 20
Oat, Wild plant response rating (wild oat; [23]): 20
Oat, Wild plant response rating (wild oat; [25]): 30
Plant response rating (0 to 100 scale), Crabgrass, Large (large crabgrass [1]; [22]): 0
Crabgrass, Large plant response rating (large crabgrass [1]; [23]): 0
Plant response rating, Crabgrass, Large (large crabgrass [1]; [24]): 0
Crabgrass, Large plant response rating (large crabgrass [1]; [25]): 0
Sedge, Umbrella plant response rating [2]: 0
Plant response rating (0 to 100 scale), Foxtail, Giant (giant foxtail [3]; [22]): 0
Foxtail, Giant plant response rating (giant foxtail [3]; [23]): 0
Plant response rating, Foxtail, Giant (giant foxtail [3]; [24]): 0
Foxtail, Giant plant response rating (giant foxtail [3]; [25]): 0
Plant response rating (0 to 100 scale), Cocklebur (cocklebur; [22]): 0
Cocklebur plant response rating (cocklebur; [23]): 0
Plant response rating, Cocklebur (cocklebur; [24]): 0
Cocklebur plant response rating (cocklebur; [25]): 0
Plant response rating (0 to 100 scale), Velvetleaf (velvetleaf [4]; [22]): 0
Velvetleaf plant response rating (velvetleaf [4]; [23]): 0
Velvetleaf plant response rating (velvetleaf [4]; [25]): 0
Barnyardgrass plant response rating (barnyardgrass [5]): 0
Barnyardgrass plant response rating (barnyardgrass [6]; [17]): 0
Plant response rating, Barnyardgrass (barnyardgrass [6]; [18]): 0
Barnyardgrass plant response rating (barnyardgrass [6]; [20]): 0
Barnyardgrass plant response rating (barnyardgrass [6]; [21]): 0
Velvetleaf plant response rating (velvetleaf [7]; [17]): 0
Plant response rating, Velvetleaf (velvetleaf [7]; [18]): 0
Velvetleaf plant response rating (velvetleaf [7]; [20]): 0
Velvetleaf plant response rating (velvetleaf [7]; [21]): 0
Ducksalad plant response rating (ducksalad): 0
Plant response rating (0 to 100 scale), Corn (corn; [22]): 0
Corn plant response rating (corn; [23]): 0
Plant response rating, Corn (corn; [24]): 0
Corn plant response rating (corn; [25]): 0
Foxtail, Giant plant response rating (giant foxtail [8]; [17]): 0
Plant response rating, Foxtail, Giant (giant foxtail [8]; [18]): 0
Foxtail, Giant plant response rating (giant foxtail [8]; [20]): 0
Foxtail, Giant plant response rating (giant foxtail [8]; [21]): 0
Plant response rating (0 to 100 scale), Lambsquarters (lambsquarters; [22]): 0
Lambsquarters plant response rating (lambsquarters; [23]): 0
Plant response rating, Lambsquarters (lambsquarters; [24]): 0
Lambsquarters plant response rating (lambsquarters; [25]): 0
Plant response rating (0 to 100 scale), Morningglory (morningglory [9]; [22]): 0
Morningglory plant response rating (morningglory [9]; [23]): 0
Plant response rating, Morningglory (morningglory [9]; [24]): 0
Morningglory plant response rating (morningglory [9]; [25]): 0
Pigweed plant response rating (redroot pigweed; [17]): 0
Plant response rating, Pigweed (redroot pigweed; [18]): 0
Pigweed plant response rating (redroot pigweed; [20]): 0
Pigweed plant response rating (redroot pigweed; [21]): 0
Plant response rating (0 to 100 scale), Barnyardgrass (barnyardgrass [10]; [22]): 0
Barnyardgrass plant response rating (barnyardgrass [10]; [23]): 0
Plant response rating, Barnyardgrass (barnyardgrass [10]; [24]): 0
Barnyardgrass plant response rating (barnyardgrass [10]; [25]): 0
Crabgrass, Large plant response rating (large crabgrass [11]; [17]): 0
Plant response rating, Crabgrass, Large (large crabgrass [11]; [18]): 0
Crabgrass, Large plant response rating (large crabgrass [11]; [20]): 0
Crabgrass, Large plant response rating (large crabgrass [11]; [21]): 0
Plant response rating (0 to 100 scale), Pigweed (pigweed; [22]): 0
Pigweed plant response rating (pigweed; [23]): 0
Plant response rating, Pigweed (pigweed; [24]): 0
Pigweed plant response rating (pigweed; [25]): 0
Morningglory plant response rating (morningglory [12]; [17]): 0
Plant response rating, Morningglory (morningglory [12]; [18]): 0
Morningglory plant response rating (morningglory [12]; [20]): 0
Morningglory plant response rating (morningglory [12]; [21]): 0
